Test results from the NIST ThermoML archive (doi:10.1021/je501041r).
Numbers after ± are expanded uncertainties.

Assay: xn = mol fraction of the nth substance listed
Conditions: 101 kPa, Liquid; for viscosity: Capillary tube (Ostwald / Ubbelohde) method; for mass density: Vibrating tube method

CCCCCO [pentan-1-ol] + CC(C)CC(C)(C)C
viscosity (298.15 K, x2 = 0): 3.458 ± 0.042 mPa·s
viscosity (298.15 K, x2 = 0.1004): 2.615 ± 0.032 mPa·s
viscosity (298.15 K, x2 = 0.2003): 1.984 ± 0.024 mPa·s
viscosity (298.15 K, x2 = 0.3): 1.525 ± 0.018 mPa·s
viscosity (298.15 K, x2 = 0.4): 1.189 ± 0.014 mPa·s
viscosity (298.15 K, x2 = 0.5): 0.948 ± 0.011 mPa·s
viscosity (298.15 K, x2 = 0.5999): 0.785 ± 0.009 mPa·s
viscosity (298.15 K, x2 = 0.6998): 0.663 ± 0.008 mPa·s
viscosity (298.15 K, x2 = 0.7999): 0.579 ± 0.007 mPa·s
viscosity (298.15 K, x2 = 0.8996): 0.518 ± 0.006 mPa·s
mass density (298.15 K, x2 = 0): 810.59 ± 2 kg/m3
mass density (298.15 K, x2 = 0.1004): 794.33 ± 2 kg/m3
mass density (298.15 K, x2 = 0.2003): 778.35 ± 2 kg/m3
mass density (298.15 K, x2 = 0.3): 763.77 ± 2 kg/m3
mass density (298.15 K, x2 = 0.4): 749.96 ± 2 kg/m3
mass density (298.15 K, x2 = 0.5): 737.18 ± 2 kg/m3
mass density (298.15 K, x2 = 0.5999): 725.64 ± 2 kg/m3
mass density (298.15 K, x2 = 0.6998): 714.97 ± 2 kg/m3
mass density (298.15 K, x2 = 0.7999): 705.08 ± 2 kg/m3
mass density (298.15 K, x2 = 0.8996): 696.03 ± 2 kg/m3
viscosity (303.15 K, x2 = 0): 3.007 ± 0.037 mPa·s
viscosity (303.15 K, x2 = 0.1004): 2.291 ± 0.028 mPa·s
viscosity (303.15 K, x2 = 0.2003): 1.758 ± 0.021 mPa·s
viscosity (303.15 K, x2 = 0.3): 1.365 ± 0.016 mPa·s
viscosity (303.15 K, x2 = 0.4): 1.076 ± 0.013 mPa·s
viscosity (303.15 K, x2 = 0.5): 0.867 ± 0.01 mPa·s
viscosity (303.15 K, x2 = 0.5999): 0.724 ± 0.009 mPa·s
viscosity (303.15 K, x2 = 0.6998): 0.623 ± 0.007 mPa·s
viscosity (303.15 K, x2 = 0.7999): 0.552 ± 0.007 mPa·s
viscosity (303.15 K, x2 = 0.8996): 0.49 ± 0.006 mPa·s
mass density (303.15 K, x2 = 0): 807.89 ± 2 kg/m3
mass density (303.15 K, x2 = 0.1004): 790.55 ± 2 kg/m3
mass density (303.15 K, x2 = 0.2003): 774.49 ± 2 kg/m3
mass density (303.15 K, x2 = 0.3): 759.83 ± 2 kg/m3
mass density (303.15 K, x2 = 0.4): 745.97 ± 2 kg/m3
mass density (303.15 K, x2 = 0.5): 733.13 ± 2 kg/m3
mass density (303.15 K, x2 = 0.5999): 721.55 ± 2 kg/m3
mass density (303.15 K, x2 = 0.6998): 710.84 ± 2 kg/m3
mass density (303.15 K, x2 = 0.7999): 700.93 ± 2 kg/m3
mass density (303.15 K, x2 = 0.8996): 691.85 ± 2 kg/m3
viscosity (308.15 K, x2 = 0): 2.625 ± 0.032 mPa·s
viscosity (308.15 K, x2 = 0.1004): 2.038 ± 0.025 mPa·s
viscosity (308.15 K, x2 = 0.2003): 1.562 ± 0.019 mPa·s
viscosity (308.15 K, x2 = 0.3): 1.225 ± 0.015 mPa·s
viscosity (308.15 K, x2 = 0.4): 0.977 ± 0.012 mPa·s
viscosity (308.15 K, x2 = 0.5): 0.797 ± 0.01 mPa·s
viscosity (308.15 K, x2 = 0.5999): 0.671 ± 0.008 mPa·s
viscosity (308.15 K, x2 = 0.6998): 0.579 ± 0.007 mPa·s
viscosity (308.15 K, x2 = 0.7999): 0.513 ± 0.006 mPa·s
viscosity (308.15 K, x2 = 0.8996): 0.466 ± 0.006 mPa·s
mass density (308.15 K, x2 = 0): 804.16 ± 2 kg/m3
mass density (308.15 K, x2 = 0.1004): 786.73 ± 2 kg/m3
mass density (308.15 K, x2 = 0.2003): 770.6 ± 2 kg/m3
mass density (308.15 K, x2 = 0.3): 755.86 ± 2 kg/m3
mass density (308.15 K, x2 = 0.4): 741.94 ± 2 kg/m3
mass density (308.15 K, x2 = 0.5): 729.05 ± 2 kg/m3
mass density (308.15 K, x2 = 0.5999): 717.43 ± 2 kg/m3
mass density (308.15 K, x2 = 0.6998): 706.68 ± 2 kg/m3
mass density (308.15 K, x2 = 0.7999): 696.74 ± 2 kg/m3
mass density (308.15 K, x2 = 0.8996): 687.64 ± 2 kg/m3
viscosity (313.15 K, x2 = 0): 2.317 ± 0.029 mPa·s
viscosity (313.15 K, x2 = 0.1004): 1.806 ± 0.022 mPa·s
viscosity (313.15 K, x2 = 0.2003): 1.403 ± 0.017 mPa·s
viscosity (313.15 K, x2 = 0.3): 1.105 ± 0.013 mPa·s
viscosity (313.15 K, x2 = 0.4): 0.89 ± 0.011 mPa·s
viscosity (313.15 K, x2 = 0.5): 0.734 ± 0.009 mPa·s
viscosity (313.15 K, x2 = 0.5999): 0.624 ± 0.008 mPa·s
viscosity (313.15 K, x2 = 0.6998): 0.549 ± 0.007 mPa·s
viscosity (313.15 K, x2 = 0.7999): 0.482 ± 0.006 mPa·s
viscosity (313.15 K, x2 = 0.8996): 0.438 ± 0.005 mPa·s
mass density (313.15 K, x2 = 0): 800.4 ± 2 kg/m3
mass density (313.15 K, x2 = 0.1004): 782.88 ± 2 kg/m3
mass density (313.15 K, x2 = 0.2003): 766.66 ± 2 kg/m3
mass density (313.15 K, x2 = 0.3): 751.85 ± 2 kg/m3
mass density (313.15 K, x2 = 0.4): 737.87 ± 2 kg/m3
mass density (313.15 K, x2 = 0.5): 724.94 ± 2 kg/m3
mass density (313.15 K, x2 = 0.5999): 713.27 ± 2 kg/m3
mass density (313.15 K, x2 = 0.6998): 702.49 ± 2 kg/m3
mass density (313.15 K, x2 = 0.7999): 692.51 ± 2 kg/m3
mass density (313.15 K, x2 = 0.8996): 683.4 ± 2 kg/m3
viscosity (318.15 K, x2 = 0): 2.029 ± 0.025 mPa·s
viscosity (318.15 K, x2 = 0.1004): 1.618 ± 0.02 mPa·s
viscosity (318.15 K, x2 = 0.2003): 1.255 ± 0.015 mPa·s
viscosity (318.15 K, x2 = 0.3): 1.001 ± 0.012 mPa·s
viscosity (318.15 K, x2 = 0.4): 0.815 ± 0.01 mPa·s
viscosity (318.15 K, x2 = 0.5): 0.679 ± 0.008 mPa·s
viscosity (318.15 K, x2 = 0.5999): 0.582 ± 0.007 mPa·s
viscosity (318.15 K, x2 = 0.6998): 0.518 ± 0.006 mPa·s
viscosity (318.15 K, x2 = 0.7999): 0.454 ± 0.006 mPa·s
viscosity (318.15 K, x2 = 0.8996): 0.422 ± 0.005 mPa·s
mass density (318.15 K, x2 = 0): 796.59 ± 2 kg/m3
mass density (318.15 K, x2 = 0.1004): 778.99 ± 2 kg/m3
mass density (318.15 K, x2 = 0.2003): 762.69 ± 2 kg/m3
mass density (318.15 K, x2 = 0.3): 747.8 ± 2 kg/m3
mass density (318.15 K, x2 = 0.4): 733.76 ± 2 kg/m3
mass density (318.15 K, x2 = 0.5): 720.78 ± 2 kg/m3
mass density (318.15 K, x2 = 0.5999): 709.06 ± 2 kg/m3
mass density (318.15 K, x2 = 0.6998): 698.25 ± 2 kg/m3
mass density (318.15 K, x2 = 0.7999): 688.24 ± 2 kg/m3
mass density (318.15 K, x2 = 0.8996): 679.11 ± 2 kg/m3
viscosity (323.15 K, x2 = 0): 1.795 ± 0.022 mPa·s
viscosity (323.15 K, x2 = 0.1004): 1.443 ± 0.018 mPa·s
viscosity (323.15 K, x2 = 0.2003): 1.131 ± 0.014 mPa·s
viscosity (323.15 K, x2 = 0.3): 0.914 ± 0.011 mPa·s
viscosity (323.15 K, x2 = 0.4): 0.749 ± 0.009 mPa·s
viscosity (323.15 K, x2 = 0.5): 0.63 ± 0.008 mPa·s
viscosity (323.15 K, x2 = 0.5999): 0.548 ± 0.007 mPa·s
viscosity (323.15 K, x2 = 0.6998): 0.486 ± 0.006 mPa·s
viscosity (323.15 K, x2 = 0.7999): 0.428 ± 0.005 mPa·s
viscosity (323.15 K, x2 = 0.8996): 0.393 ± 0.005 mPa·s
mass density (323.15 K, x2 = 0): 792.75 ± 2 kg/m3
mass density (323.15 K, x2 = 0.1004): 775.05 ± 2 kg/m3
mass density (323.15 K, x2 = 0.2003): 758.67 ± 2 kg/m3
mass density (323.15 K, x2 = 0.3): 743.71 ± 2 kg/m3
mass density (323.15 K, x2 = 0.4): 729.61 ± 2 kg/m3
mass density (323.15 K, x2 = 0.5): 716.58 ± 2 kg/m3
mass density (323.15 K, x2 = 0.5999): 704.82 ± 2 kg/m3
mass density (323.15 K, x2 = 0.6998): 693.98 ± 2 kg/m3
mass density (323.15 K, x2 = 0.7999): 683.93 ± 2 kg/m3
mass density (323.15 K, x2 = 0.8996): 674.79 ± 2 kg/m3
